From ChEMBL document CHEMBL5113408, “Design, synthesis and antitumour activity of novel 5(6)-amino-benzimidazolequinones containing a fused morpholine” (Eur J Med Chem, 2022)
Activity calls are given as the source filed them. The rule behind the calls is not given here.

How the values were obtained:
[1] = Toxicity in BALB/c mouse xenografted with human MGC-803 cells assessed as effect on lung at 10 to 20 mg/kg, ip administered once every two days measured after 15 days by H and E staining based assay; format: organism-based; settings: in vivo, 360 h, dose 10-20 mg/kg, time 15 day
[2] = test system: HGC-27; assay: Induction of cell cycle arrest in human HGC-27 cells assessed as accumulation of cells at G1 phase at 1 uM incubated for 36 hrs by PI staining based flow cytometry analysis (reference value: 49.6%); format: functional
[3] = test system: MGC-803; assay: Induction of apoptosis in human MGC-803 cells assessed as increase in cleaved caspase 3 protein expression level at 1 to 4 uM incubated for 48 hrs by Western blot analysis; format: functional, cell-based; settings: dose 1-4 µM
[4] = test system: MGC-803; assay: Induction of cell cycle arrest in human MGC-803 cells assessed as decrease in p-cdc25c level at 1 to 4 uM by Western blot analysis; format: functional, cell-based; settings: dose 1-4 µM
[5] = test system: ECa-109 cell line; assay: Antiproliferative activity against human EC109 cells assessed as inhibition of cell growth by SRB assay; format: functional, cell-based
[6] = test system: MGC-803; assay: Antitumor activity against human MGC-803 cells xenografted with BALB/c mouse assessed as vacuolated cytoplasm at 10 to 20 mg/kg, ip administered once every two days; format: functional, organism-based; settings: dose 10-20 mg/kg
[7] = test system: MGC-803; assay: Induction of ROS generation in human MGC-803 cells at 1 to 4 uM incubated for 24 hrs by flow cytometry analysis; format: functional, cell-based; settings: dose 1-4 µM
[8] = test system: MGC-803; assay: Induction of cell cycle arrest in human MGC-803 cells assessed as decrease in cyclin-B1 level at 1 to 4 uM by Western blot analysis; format: functional, cell-based; settings: dose 1-4 µM
[9] = test system: MGC-803; assay: Antiproliferative activity against human MGC-803 cells assessed as inhibition of cell growth at 0.25 to 8 uM by SRB assay; format: functional, cell-based; settings: dose 0.25-8 µM, time 24-72 hrs, TDE = time-dependent effect
[10] = test system: HGC-27; assay: Induction of apoptosis in human HGC-27 cells assessed as increase in cleaved caspase 9 protein expression level at 1 to 4 uM incubated for 48 hrs by Western blot analysis; format: functional, cell-based; settings: dose 1-4 µM
[11] = test system: HGC-27; assay: Induction of cell cycle arrest in human HGC-27 cells assessed as decrease in p-cdc2 level at 1 to 4 uM by Western blot analysis; format: functional, cell-based; settings: dose 1-4 µM
[12] = test system: MGC-803; assay: Induction of cell cycle arrest in human MGC-803 cells assessed as accumulation of cells at G2/M phase at 4 uM incubated for 36 hrs by PI staining based flow cytometry analysis (reference value: 20.5%); format: functional
[13] = test system: MGC-803; assay: Induction of cell cycle arrest in human MGC-803 cells assessed as accumulation of cells at S phase at 2 uM incubated for 36 hrs by PI staining based flow cytometry analysis (reference value: 20.5%); format: functional
[14] = test system: MGC-803; assay: Inhibition of colony formation in human MGC-803 cells incubated for 24 hrs with fresh medium replacement for every two days measured for 11 days by crystal voilet staining based assay; format: functional, cell-based; settings: dose 0.5-2 µM, time 11.0 day, DDE = dose-dependent effect
[15] = test system: MGC-803; assay: Induction of mitochondrial membrane depolarization in human MGC-803 cells incubated for 48 hrs by flow cytometry analysis; format: functional, cell-based; settings: dose 1-4 µM, DDE = dose-dependent effect
[16] = Toxicity in BALB/c mouse xenografted with human MGC-803 cells assessed as effect on spleen at 10 to 20 mg/kg, ip administered once every two days measured after 15 days by H and E staining based assay; format: organism-based; settings: in vivo, 360 h, dose 10-20 mg/kg, time 15 day
[17] = test system: MGC-803; assay: Induction of apoptosis in human MGC-803 cells incubated for 48 hrs by Annexin-V FITC staining based flow cytometry analysis; format: functional, cell-based; settings: dose 1-4 µM, DDE = dose-dependent effect
[18] = Toxicity in BALB/c mouse xenografted with human MGC-803 cells assessed as effect on body weight at 10 to 20 mg/kg, ip administered once every two days; format: organism-based; settings: in vivo, dose 10-20 mg/kg
[19] = test system: MGC-803; assay: Antitumor activity against human MGC-803 cells xenografted with BALB/c mouse assessed as reduction in tumor weight at 10 to 20 mg/kg, ip administered once every two days; format: functional, organism-based; settings: dose 10-20 mg/kg
[20] = test system: HGC-27; assay: Activation of ROS/JNK signalling in human HGC-27 cells assessed as increase in p-JNK level at 1 to 4 uM by Western blot analysis; format: cell-based; settings: filed as activator, dose 1-4 µM
[21] = test system: MGC-803; assay: Antitumor activity against human MGC-803 cells xenografted with BALB/c mouse assessed as wrinkled nuclei at 10 to 20 mg/kg, ip administered once every two days; format: functional, organism-based; settings: dose 10-20 mg/kg
[22] = test system: MGC-803; assay: Induction of apoptosis in human MGC-803 cells assessed as increase in bax/bcl-2 expression level at 1 to 4 uM incubated for 48 hrs by Western blot analysis; format: functional, cell-based; settings: dose 1-4 µM
[23] = test system: MGC-803; assay: Antiproliferative activity against human MGC-803 cells assessed as inhibition of cell growth by SRB assay; format: functional, cell-based
[24] = test system: MGC-803; assay: Induction of DNA damage in human MGC-803 cells assessed as increase in p-Chk generation incubated for 48 hrs by Western blot analysis; format: functional, cell-based; settings: DDE = dose-dependent effect
[25] = test system: HGC-27; assay: Induction of apoptosis in human HGC-27 cells assessed as decrease in caspase 7 protein expression level at 1 to 4 uM incubated for 48 hrs by Western blot analysis; format: functional, cell-based; settings: dose 1-4 µM
[26] = test system: HGC-27; assay: Inhibition of colony formation in human HGC-27 cells incubated for 24 hrs with fresh medium replacement for every two days measured for 11 days by crystal voilet staining based assay; format: functional, cell-based; settings: dose 0.5-2 µM, time 11.0 day, DDE = dose-dependent effect
[27] = test system: MGC-803; assay: Activation of ROS/JNK signalling in human MGC-803 cells assessed as increase in p-JNK level at 1 to 4 uM by Western blot analysis; format: cell-based; settings: filed as activator, dose 1-4 µM
[28] = test system: MGC-803; assay: Induction of DNA damage in human MGC-803 cells assessed as increase in gamma-H2AX generation incubated for 48 hrs by Western blot analysis; format: functional, cell-based; settings: DDE = dose-dependent effect
[29] = test system: HGC-27; assay: Antiproliferative activity against human HGC-27 cells assessed as inhibition of cell growth incubated for 72 hrs by SRB assay; format: functional, cell-based; settings: HGC-27, 72 h
[30] = test system: HGC-27; assay: Induction of apoptosis in human HGC-27 cells assessed as increase in bax/bcl-2 expression level at 1 to 4 uM incubated for 48 hrs by Western blot analysis; format: functional, cell-based; settings: dose 1-4 µM
[31] = test system: HGC-27; assay: Induction of cell cycle arrest in human HGC-27 cells assessed as accumulation of cells at S phase at 4 uM incubated for 36 hrs by PI staining based flow cytometry analysis (reference value: 8.87%); format: functional
[32] = Toxicity in BALB/c mouse xenografted with human MGC-803 cells assessed as effect on heart at 10 to 20 mg/kg, ip administered once every two days measured after 15 days by H and E staining based assay; format: organism-based; settings: in vivo, 360 h, dose 10-20 mg/kg, time 15 day
[33] = test system: MGC-803; assay: Induction of apoptosis in human MGC-803 cells assessed as increase in cleaved caspase 7 protein expression level at 1 to 4 uM incubated for 48 hrs by Western blot analysis; format: functional, cell-based; settings: dose 1-4 µM
[34] = Toxicity in BALB/c mouse xenografted with human MGC-803 cells assessed as effect on creatinine level at 10 to 20 mg/kg, ip administered once every two days; format: organism-based; settings: in vivo, dose 10-20 mg/kg
[35] = Toxicity in BALB/c mouse xenografted with human MGC-803 cells assessed as effect on liver at 10 to 20 mg/kg, ip administered once every two days measured after 15 days by H and E staining based assay; format: organism-based; settings: in vivo, 360 h, dose 10-20 mg/kg, time 15 day
[36] = test system: HGC-27; assay: Activation of ROS/JNK signalling in human HGC-27 cells assessed as increase in p-MKK4 level by Western blot analysis; format: cell-based; settings: filed as activator, dose 1-4 µM, DDE = dose-dependent effect

With Cc1ccc(NC2=CC(=O)c3nc4n(c3C2=O)[C@H]2OC[C@@H](O)[C@H]2OC4)cc1C the Activity [1] was “Non-Toxic”, the Activity [2] was 49.3% and the Activity [3] was “Active”. The Activity [4] was “Active”, the IC50 [5] was 2820 nM and the Activity [6] was “Active”. For the same molecule, the Activity [7] was “Active”, the Activity [8] was “Active” and the Activity [9] was “Tde”. For the same molecule, the Activity [10] was “Active”, the Activity [11] was “Active” and the Activity [12] was 28.2%. The Activity [13] was 39.3%, the inhibition [14] was “Dde” and the Activity [15] was “Dde”. For the same molecule, the Activity [16] was “Non-Toxic”, the Activity [17] was “Dde” and the Activity [18] was “Non-Toxic”. For the same molecule, the Activity [19] was “Active”, the Activity [20] was “Active” and the Activity [21] was “Active”. The Activity [22] was “Active”, the IC50 [23] was 860 nM and the Activity [24] was “Dde”. The Activity [25] was “Active”, the inhibition [26] was “Dde” and the Activity [27] was “Active”. The Activity [28] was “Dde”, the IC50 [29] was 1740 nM and the Activity [30] was “Active”. For the same molecule, the Activity [31] was 14.4%, the Activity [32] was “Non-Toxic” and the Activity [33] was “Active”. The Activity [34] was “Non-Toxic”, the Activity [35] was “Non-Toxic” and the Activity [36] was “Dde”.
